# Experimental data taken from patent US5994334A, “Androgen synthesis inhibitors” (priority 1997, dated 1999).
# Entries after “also recorded” stand apart in the source; their conditions may differ. Where two headings read alike, the source gives them in different places.
# Assays:
# [1] = biological target: T1, Human Testicular 17α-Hydroxylase (Homo sapiens, UniProt P05093); assay: Inhibition of human testicular 17α-hydroxylase (pregnenolone substrate, testicular microsomes); assay type: biochemical
# T1 construct: incubating human testicular microsomes; from tissue; host or cells: human testis, microsomes
# T1 sequence (P05093 1-508): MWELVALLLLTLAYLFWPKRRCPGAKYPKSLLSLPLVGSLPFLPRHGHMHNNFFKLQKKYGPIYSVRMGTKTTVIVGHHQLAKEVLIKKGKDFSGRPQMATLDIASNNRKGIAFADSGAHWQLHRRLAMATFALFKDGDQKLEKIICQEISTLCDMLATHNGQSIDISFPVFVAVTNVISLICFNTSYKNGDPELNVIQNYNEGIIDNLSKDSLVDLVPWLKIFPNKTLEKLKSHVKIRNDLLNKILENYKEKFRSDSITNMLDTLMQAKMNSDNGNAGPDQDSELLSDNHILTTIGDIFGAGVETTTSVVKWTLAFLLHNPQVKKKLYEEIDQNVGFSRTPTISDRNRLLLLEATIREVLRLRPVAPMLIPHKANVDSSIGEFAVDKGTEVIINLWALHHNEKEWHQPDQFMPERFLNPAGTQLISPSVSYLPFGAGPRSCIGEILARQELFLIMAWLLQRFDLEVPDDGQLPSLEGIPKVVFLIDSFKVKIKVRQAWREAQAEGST
# Experimental: (§1) The conversion of radiolabeled pregnenolone to 17α-hydroxypregnenolone and DHEA by 17α-hydroxylase/C17,20 -lyase was measured by incubating human testicular microsomes with different concentration of test compounds. Reverse phase HPLC was used to separate and accurately quantify the amount of substrate and metabolites. The 17α-hydroxylase and C17,20 -lyase activities were calculated separately. The activity of 17α-hydroxylase was calculated from the conversion of pregnenolone to 17α-hydroxypregnenolone and DHEA and the activity of C17,20 -lyase was based on the conversion of pregnenolone to DHEA. Although 17α-hydroxypregnenolone is the substrate converted to DHEA by C17,20 -lyase, it has been reported that this 17α-hydroxy intermediate is not released from the enzyme binding site during conversion (Nakajin et al., 1981a,b). Also, there are species differences in substrate requirements. Pregnenolone is the natural substrate rather than progesterone for human testicular 17α-hydroxylase and C17,20 -lyase. Therefore, pregnenolone was used as substrate for measuring the activity of this enzyme complex.
# [2] = biological target: T2, Human Testicular C17,20-lyase (Homo sapiens, UniProt P05093); assay: Inhibition of human testicular C17,20-lyase (pregnenolone substrate, testicular microsomes); assay type: biochemical
# T2 construct: incubating human testicular microsomes; from tissue; host or cells: human testis, microsomes
# T2 sequence (P05093 1-508): T1 sequence (P05093 1-508)
# Experimental: as §1
# [3] = biological target: T3, human 17α-hydroxylase/C17,20-lyase (Homo sapiens, UniProt P05093); assay: Inhibition of human testicular 17α-hydroxylase/C17,20-lyase (enzyme complex as a whole); assay type: biochemical; settings: for inhibition of 17α-hydroxylase/C17,20-lyase (in words): NI = no inhibition
# T3 construct: incubating human testicular microsomes; from tissue; host or cells: human testis, microsomes
# T3 sequence (P05093 1-508): T1 sequence (P05093 1-508)
# Experimental: as §1
# [4] = biological target: T4, Human Prostatic 5α-Reductase (Homo sapiens, UniProt P31213); assay: Inhibition of human prostatic 5α-reductase (prostatic microsomes, [3H]testosterone); settings: for inhibition at 0.1 µM: read-out: % Inhibition of 5α-reductase, [I] 100 nM
# T4 sequence (P31213 1-254): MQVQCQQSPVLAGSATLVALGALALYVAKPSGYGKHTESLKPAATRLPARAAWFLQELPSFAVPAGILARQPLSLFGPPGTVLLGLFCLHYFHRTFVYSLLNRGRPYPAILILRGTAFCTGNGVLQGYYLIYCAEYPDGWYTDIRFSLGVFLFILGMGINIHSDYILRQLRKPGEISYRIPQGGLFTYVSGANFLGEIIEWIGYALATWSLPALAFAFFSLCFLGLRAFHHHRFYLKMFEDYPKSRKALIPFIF
# Experimental: The 5α-reductase assay is performed by incubating human prostatic microsomes (approx. 0.6 mg protein in 0.5 ml phosphate buffer) with [7-^3 H]testosterone (10 mM. 6×10^5 dpm) with a NADPH generating system (NADP 0.65 mM; glucose-6-phosphate 7.1 mM; glucose-6-phosphate dehydrogenase 2.5 IU in 100 μl phosphate buffer) and candidate inhibitors at concentrations of 10 nM and 100 nM under oxygen for 30 min at 37° C. […] The steroids are extracted with ether and separated by chromatography on TLC (chloroform:ether 80:20). […] The steroids are scraped from the plate and radioactivity measured.
# [5] = Table 1, NI = no inhibition, read-out: IC50 17α-OHase
# [6] = Table 1, NI = no inhibition, CI = complete inhibition, read-out: IC50 C17,20 lyase
structure (smiles),measurement,setting,value
C[C@]12CC[C@H]3[C@@H](CC=C4C[C@@H](O)CC[C@@]43C)[C@@H]1CC[C@@H]2[C@@]1(C)CO1 [Compound I-8],IC50,[1]; [5],110 nM
same,IC50,[2]; [6],140 nM
same,"inhibition of 17α-hydroxylase/C17,20-lyase (in words)",[3],significant inhibition
same,inhibition at 0.01 µM,"[4]; read-out: % Inhibition of 5α-reductase, [I] 10 nM",11.8%
same,inhibition at 0.1 µM,[4],16.3%
C[C@@H](O)[C@H]1CC[C@H]2[C@@H]3CC=C4C[C@@H](O)CC[C@]4(C)[C@H]3CC[C@]12C [Compound I-20],IC50,[1]; IC50 17α-OHase,180 nM
same,IC50,"[2]; IC50 C17,20 lyase",190 nM
same,"inhibition of 17α-hydroxylase/C17,20-lyase (in words)",[3],potent inhibition
same,inhibition of 5α-reductase (in words),[4]; NI = no inhibition,neither showed activity against 5α-reductase
CN(C=O)[C@H]1CC[C@H]2[C@@H]3CCC4=CC(=O)CC[C@]4(C)[C@H]3CC[C@]12C [Compound I-40],IC50,[1]; [5],760 nM
same,IC50,[2]; [6],680 nM
same,fold lower inhibition than I-16,[3]; vs I-16,approximately 4 fold
same,IC50,"[4]; IC50 5α-reductase, Table 2",150 nM
CC(=NO)[C@H]1CC[C@H]2[C@@H]3CCC4=CC(=NO)CC[C@]4(C)[C@H]3CC[C@]12C [Compound I-42],IC50,[1]; [5],210 nM
same,IC50,[2]; [6],220 nM
same,"inhibition of 17α-hydroxylase/C17,20-lyase (in words)",[3],decreased activity
same,inhibition of 5α-reductase (in words),[4]; NI = no inhibition,decreased activity
same,IC50,"[4]; read-out: IC50 5α-reductase, Table 2",2060 nM
C[C@H](c1c[nH]cn1)[C@H]1CC[C@H]2[C@@H]3CCC4=CC(=O)CC[C@]4(C)[C@H]3CC[C@]12C [Compound I-45],IC50,[1]; [5],> 30000 nM
same,IC50,[2]; [6],> 30000 nM
same,"inhibition of 17α-hydroxylase/C17,20-lyase (in words)",[3],did not show any activity
C[C@]12CC[C@H]3[C@@H](CC=C4C[C@@H](O)CC[C@@]43C)[C@@H]1CC[C@@H]2c1ncc[nH]1 [Compound L-1],inhibition at 0.1 µM,"[1]; 100 nM, first figure of pair, read-out: % Inhibition 17α-hydroxylase, [I] = 100 nM",22.8%
same,inhibition at 0.4 µM,"[1]; 400 nM, first figure of pair, read-out: % Inhibition 17α-hydroxylase, [I] = 400 nM",23.7%
same,inhibition at 0.1 µM,"[2]; 100 nM, second figure of pair, read-out: % Inhibition C17,20-lyase, [I] = 100 nM",73.9%
same,inhibition at 0.4 µM,"[2]; 400 nM, second figure of pair, read-out: % Inhibition C17,20-lyase, [I] = 400 nM",100%
same,"inhibition of 17α-hydroxylase/C17,20-lyase (in words)",[3],"poor inhibition of 17α-hydroxylase/C17,20 -lyase"
"CC(=NO)C1=CC[C@H]2[C@@H]3CCC4=CC(=O)CC[C@]4(C)[C@H]3CC[C@]12C [Compound L-2, 16-dehydroprogesterone-20-oxime]",IC50,[1]; [5],8.7 nM
same,IC50,"[1]; Table 3, first figure of 17α-hydroxylase/lyase pair, read-out: IC50 17α-hydroxylase",8.65 nM
same,IC50,"[1]; first figure of pair, read-out: IC50 17α-hydroxylase",6 nM
same,IC50,"[2]; second figure of pair, read-out: IC50 C17,20-lyase",5 nM
same,"inhibition of 17α-hydroxylase/C17,20-lyase (in words)",[3],potent inhibitors of both enzymes
same,"stronger activity than I-5 against 17α-hydroxylase/C17,20-lyase",[3]; vs I-5,twofold stronger activity
same,times more potent than ketoconazole,[3]; vs ketoconazole,10-50 times
same,IC50,[4]; IC50 5α-reductase,52.5 nM
same,IC50,"[4]; IC50 5α-reductase, Table 2",52 nM
same,IC50,"[4]; IC50 5α-reductase, Table 3, NI = no inhibition",52.5 nM
same,inhibition of 5α-reductase (in words),[4]; NI = no inhibition,potent inhibition of 5α-reductase; also recorded: potent inhibitor of human 5α-reductase
same,inhibition at 0.1 µM,[4],45.5%
same,times less potent than finasteride (5α-reductase),[4]; vs finasteride,4-6 times
